From patent US6762189B1, “5-pyrimidinecarboxamide derivatives and the pharmaceutical compositions containing said derivatives” (Dong Wha Pharm. Ind. Co., Ltd., priority 1999, dated 2004) come the findings set out here.

In one data set the target is T1, HBV polymerase (Hepatitis B virus genotype A2 subtype adw2, UniProt P03159).
T1 construct: made in house; host or cells: E. coli
Description: In vitro reverse transcription activity of HBV polymerase (ELISA-type, DIG/biotin nucleotides). Type of data set: biochemical. The following applies: read-out: Inhibition activity on HBV-RT (%); for inhibition at 0.01 µg/mL: 0.01 μg/ml test compound; for inhibition at 0.1 µg/mL: 0.1 μg/ml test compound; for inhibition at 1 µg/mL: 1 μg/ml test compound. An outline of the steps:
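E. coli-expressed HBV polymerase was incubated on streptavidin-coated wells with […] (10 µM each in the reaction mix), with test compound at 1, 0.1 and 0.01 µg/ml, for 15 h at 22 °C. Product was detected with anti-DIG-POD and ABTS at A405; % reduction relative to the no-compound control.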
(In general: ELISA stands for enzyme-linked immunosorbent assay.)

The subject of another data set is HBV. Description: Inhibition of HBV proliferation in HBV producing cell line HepG 2.2.15 (competitive PCR of culture supernatant). Type of data set: cell-based, Hepatitis B virus. The conditions noted are these: Hepatitis B virus, HepG2.2.15, 168 h, HepG 2.2.15, one week, read-out: Inhibitory effect on the HBV proliferation, Inhibition activity on HBV-RT (%); for inhibition at 0.01 µg/mL: 0.01 μg/ml; for inhibition at 0.1 µg/mL: 0.1 μg/ml; for inhibition at 1 µg/mL: 1 μg/ml.

Data set [1] has as its target T2, HIV reverse transcriptase (Human immunodeficiency virus type 1 group M subtype B, UniProt P04585).
T2 construct: activities of HIV reverse transcriptase; purchased Boehringer Mannheim
Description: In vitro HIV reverse transcriptase activity (non-radioactive reverse transcriptase assay kit). Type of data set: biochemical. The conditions noted are these: for Inhibitory effect on the activities of HIV reverse transcriptase, Inhibition activity on HBV-RT (%): 0.1 μg/ml test compound; for Inhibition of HIV reverse transcriptase activity: 1 μg/ml test compound.

Data set [2] is described as follows: Cytotoxicity test on HepG2 cells (MTT). Type of data set: cell-based. The following applies: human, read-out: Cytotoxity on HepG2, IC50 (50% Inhibitory Concentration).
Another data set has as its system HepG2 cells. Kind of data set: Cytotoxicity test on HepG2 cells (MTT). Type of data set: cell-based.

T1 sequence (P03159 whole entry): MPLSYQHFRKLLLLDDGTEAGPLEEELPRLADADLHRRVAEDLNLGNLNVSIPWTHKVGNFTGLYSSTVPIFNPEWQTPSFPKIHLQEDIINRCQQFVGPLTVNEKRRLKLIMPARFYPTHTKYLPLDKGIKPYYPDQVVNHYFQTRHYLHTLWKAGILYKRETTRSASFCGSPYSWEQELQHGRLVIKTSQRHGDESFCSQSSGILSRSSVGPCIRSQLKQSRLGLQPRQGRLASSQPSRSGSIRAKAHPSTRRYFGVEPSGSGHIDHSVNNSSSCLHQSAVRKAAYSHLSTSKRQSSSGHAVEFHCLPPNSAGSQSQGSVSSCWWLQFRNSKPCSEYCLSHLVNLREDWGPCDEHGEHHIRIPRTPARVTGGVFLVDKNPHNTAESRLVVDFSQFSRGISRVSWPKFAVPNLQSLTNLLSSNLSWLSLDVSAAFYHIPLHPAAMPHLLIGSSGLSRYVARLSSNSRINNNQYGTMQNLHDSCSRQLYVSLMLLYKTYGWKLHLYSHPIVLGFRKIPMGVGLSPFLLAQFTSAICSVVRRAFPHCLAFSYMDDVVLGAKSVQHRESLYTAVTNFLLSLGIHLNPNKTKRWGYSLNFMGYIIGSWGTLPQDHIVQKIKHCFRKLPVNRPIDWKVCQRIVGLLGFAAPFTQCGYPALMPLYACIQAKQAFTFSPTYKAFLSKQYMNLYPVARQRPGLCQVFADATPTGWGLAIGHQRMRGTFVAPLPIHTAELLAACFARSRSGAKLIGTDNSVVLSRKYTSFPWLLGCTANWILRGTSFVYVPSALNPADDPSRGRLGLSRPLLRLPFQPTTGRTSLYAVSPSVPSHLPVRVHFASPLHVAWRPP

On to `CNC(=O)c1cnc(SC)nc1Nc1ccc2[nH]ncc2c1` [Example 3, 4-(1H-5-Indazolylamino)-N-methyl-2-methylthio-5-pyrimidine carboxamide], for which, on HBV polymerase, the inhibition at 0.01 µg/mL is 34%, the inhibition at 0.1 µg/mL is 59% and the inhibition at 1 µg/mL stood at 88%. For the same compound, in the data set with HBV, the inhibition at 0.01 µg/mL was determined as 15%, the inhibition at 0.1 µg/mL turned out to be 42% and the inhibition at 1 µg/mL turned out to be 75%. In data set [1], the “Inhibitory effect on the activities of HIV reverse transcriptase, Inhibition activity on HBV-RT (%)” value amounted to 48% and the “Inhibition of HIV reverse transcriptase activity” value amounted to 62%. In addition, the IC50 in data set [2] is more than 100 µg/mL. Moreover, the “Cytotoxity on HepG2, MCD (Minimal Cytotoxic Concentration)” value in the data set on HepG2 cells was found to be 100 µg/mL.

Turning to `CNC(=O)c1cnc(SC)nc1Nc1ccc2cn[nH]c2c1` [Example 4, 4-(1H-6-Indazolylamino)-N-methyl-2-methylthio-5-pyrimidinecarboxamide], on HBV polymerase, the inhibition at 0.01 µg/mL was 52%, the inhibition at 0.1 µg/mL came to 77% and the inhibition at 1 µg/mL was 96%. Also, in the data set with HBV, the inhibition at 0.01 µg/mL was 32%, the inhibition at 0.1 µg/mL is 70% and the inhibition at 1 µg/mL was determined as 94%. In data set [1], the “Inhibitory effect on the activities of HIV reverse transcriptase, Inhibition activity on HBV-RT (%)” value came to 42% and the “Inhibition of HIV reverse transcriptase activity” value turned out to be 70%. In data set [2], the IC50 is more than 100 µg/mL. Further, the “Cytotoxity on HepG2, MCD (Minimal Cytotoxic Concentration)” value in the data set on HepG2 cells worked out at 100 µg/mL.
